Measurements: ChEMBL document CHEMBL2074513, “Role of blood-brain barrier P-glycoprotein in limiting brain accumulation and sedative side-effects of asimadoline, a peripherally acting analgaesic drug” (Br J Pharmacol, 1999)

Key:
[1] = target: ATP-dependent translocase ABCB1 (Homo sapiens, UniProt P08183); assay: TP_TRANSPORTER: transepithelial transport (basal to apical) in MDR1-expressing LLC-PK1 cells; assay type: functional, cell-based; details: pig
[2] = target: ATP-dependent translocase ABCB1 (Mus musculus, UniProt P21447); assay: TP_TRANSPORTER: transepithelial transport (basal to apical) in mdr1a-expressing LLC-PK1 cell; assay type: functional, cell-based; details: pig
Sequence of ATP-dependent translocase ABCB1 (Mus musculus, UniProt P21447) (P21447 whole entry): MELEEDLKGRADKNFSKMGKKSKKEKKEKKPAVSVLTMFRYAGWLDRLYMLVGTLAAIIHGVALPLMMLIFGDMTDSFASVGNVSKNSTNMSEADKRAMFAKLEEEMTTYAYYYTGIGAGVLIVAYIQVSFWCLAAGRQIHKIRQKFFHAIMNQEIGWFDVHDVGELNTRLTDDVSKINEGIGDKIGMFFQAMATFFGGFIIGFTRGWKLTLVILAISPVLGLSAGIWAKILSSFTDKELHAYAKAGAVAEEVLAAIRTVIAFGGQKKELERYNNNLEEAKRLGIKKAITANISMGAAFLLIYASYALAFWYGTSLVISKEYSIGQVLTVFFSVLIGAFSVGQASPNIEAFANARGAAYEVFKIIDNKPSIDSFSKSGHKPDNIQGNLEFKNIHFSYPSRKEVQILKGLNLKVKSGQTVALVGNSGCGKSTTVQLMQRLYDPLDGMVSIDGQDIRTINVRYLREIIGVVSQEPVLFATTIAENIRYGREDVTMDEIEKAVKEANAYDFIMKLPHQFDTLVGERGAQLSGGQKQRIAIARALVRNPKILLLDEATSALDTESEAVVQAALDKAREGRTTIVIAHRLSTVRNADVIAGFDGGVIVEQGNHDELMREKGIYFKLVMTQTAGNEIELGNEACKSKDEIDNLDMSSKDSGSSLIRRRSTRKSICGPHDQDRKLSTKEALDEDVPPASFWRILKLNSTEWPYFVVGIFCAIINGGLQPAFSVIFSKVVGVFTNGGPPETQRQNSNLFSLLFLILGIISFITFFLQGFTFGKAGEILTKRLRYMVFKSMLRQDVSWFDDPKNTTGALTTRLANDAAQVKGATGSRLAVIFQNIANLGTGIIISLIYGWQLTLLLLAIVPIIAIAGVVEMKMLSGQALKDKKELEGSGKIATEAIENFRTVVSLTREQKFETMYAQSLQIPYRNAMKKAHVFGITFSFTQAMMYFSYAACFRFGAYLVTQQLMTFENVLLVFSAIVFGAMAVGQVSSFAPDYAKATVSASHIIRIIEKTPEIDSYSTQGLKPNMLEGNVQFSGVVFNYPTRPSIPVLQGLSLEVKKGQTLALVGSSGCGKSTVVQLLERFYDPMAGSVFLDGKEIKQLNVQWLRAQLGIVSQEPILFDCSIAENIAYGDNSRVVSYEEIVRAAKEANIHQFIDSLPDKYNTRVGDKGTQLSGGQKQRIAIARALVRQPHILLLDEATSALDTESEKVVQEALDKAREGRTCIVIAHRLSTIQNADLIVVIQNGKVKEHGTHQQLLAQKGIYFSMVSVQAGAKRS

[3] = target: P-glycoprotein 1 and 3 (MDR1a/MDR1b) (Mus musculus, UniProt P21447+P06795); assay: TP_TRANSPORTER: increase in brain concentration in mdr1a/1b(-/-) mouse; assay type: functional, organism-based; details: in vivo

Measured: Activity

Sequence of ATP-dependent translocase ABCB1 (Homo sapiens, UniProt P08183) (P08183 whole entry): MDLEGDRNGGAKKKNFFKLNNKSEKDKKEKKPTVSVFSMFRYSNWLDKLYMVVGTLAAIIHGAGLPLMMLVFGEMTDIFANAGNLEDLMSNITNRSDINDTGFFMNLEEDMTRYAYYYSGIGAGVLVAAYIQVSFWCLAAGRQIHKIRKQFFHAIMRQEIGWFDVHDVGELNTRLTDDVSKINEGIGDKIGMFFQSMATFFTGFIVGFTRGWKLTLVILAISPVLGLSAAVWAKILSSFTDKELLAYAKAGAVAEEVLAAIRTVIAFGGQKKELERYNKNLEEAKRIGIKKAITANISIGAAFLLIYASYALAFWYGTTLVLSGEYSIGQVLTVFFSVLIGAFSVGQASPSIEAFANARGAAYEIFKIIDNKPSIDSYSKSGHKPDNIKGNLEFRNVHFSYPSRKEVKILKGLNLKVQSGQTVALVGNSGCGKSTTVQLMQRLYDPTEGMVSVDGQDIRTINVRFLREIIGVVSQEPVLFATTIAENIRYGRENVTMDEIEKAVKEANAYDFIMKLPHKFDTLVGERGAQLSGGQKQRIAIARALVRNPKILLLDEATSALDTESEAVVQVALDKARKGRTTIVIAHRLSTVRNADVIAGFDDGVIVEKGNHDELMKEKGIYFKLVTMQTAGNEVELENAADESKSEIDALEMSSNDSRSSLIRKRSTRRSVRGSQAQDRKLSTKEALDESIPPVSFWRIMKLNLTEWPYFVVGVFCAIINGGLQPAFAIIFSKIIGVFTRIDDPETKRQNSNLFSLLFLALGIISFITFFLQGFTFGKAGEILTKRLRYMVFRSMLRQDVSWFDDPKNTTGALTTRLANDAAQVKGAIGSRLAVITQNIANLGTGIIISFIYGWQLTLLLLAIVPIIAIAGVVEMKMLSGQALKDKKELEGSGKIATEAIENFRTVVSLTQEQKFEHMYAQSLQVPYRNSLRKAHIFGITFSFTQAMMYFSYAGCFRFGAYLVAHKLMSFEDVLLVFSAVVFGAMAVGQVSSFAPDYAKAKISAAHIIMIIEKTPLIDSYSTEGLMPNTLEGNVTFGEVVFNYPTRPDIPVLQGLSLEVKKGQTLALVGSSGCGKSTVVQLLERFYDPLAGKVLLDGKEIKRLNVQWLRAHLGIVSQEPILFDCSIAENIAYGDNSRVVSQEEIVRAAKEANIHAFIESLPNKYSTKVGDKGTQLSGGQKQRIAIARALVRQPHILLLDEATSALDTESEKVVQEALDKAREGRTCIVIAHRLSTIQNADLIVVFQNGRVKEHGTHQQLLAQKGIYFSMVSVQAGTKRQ

CN(C(=O)C(c1ccccc1)c1ccccc1)[C@H](CN1CC[C@H](O)C1)c1ccccc1 [ASIMADOLINE]
substrate [+]: all assays above
